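Five concentrations, 48 hours, 96-well plates. GI50 is the concentration that inhibits growth by half. TGI: total growth inhibition.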
Columns and labels:
Test in all cases: growth of human tumour cells (NCI), 48 h
[1] = tested on: KM12 colon
[2] = tested on: MALME-3M melanoma
[3] = tested on: SF-268 CNS
[4] = tested on: SR leukemia
[5] = tested on: UACC-257 melanoma
[6] = tested on: UACC-62 melanoma
[7] = tested on: NCI-H460 lung
[8] = tested on: MDA-MB-231 breast
[9] = tested on: PC-3 prostate
[10] = tested on: MCF7 breast

SMILES | TGI [1] | TGI [2] | TGI [3] | TGI [4] | TGI [5] | TGI [6] | TGI [7] | GI50 [1] | GI50 [2] | GI50 [8] | TGI [8] | GI50 [9] | TGI [9] | GI50 [4] | GI50 [5] | GI50 [6] | GI50 [10] | TGI [10] | GI50 [7] | GI50 [3]
COC(=O)C(=O)C(C(=O)C(=O)Nc1cc(C)ccc1C)c1nc2ccc(C(=O)c3ccccc3)cc2[nH]c1=O (centres undefined) | > 100 µM | > 100 µM | > 100 µM | > 100 µM | > 100 µM | > 100 µM | – | – | – | – | – | – | – | – | – | – | – | – | – | –
CCOC(=O)C(C(O)c1ccc([N+](=O)[O-])cc1)P(=O)(OCC)OCC (centres undefined) | > 100 µM | > 100 µM | > 100 µM | – | – | > 100 µM | > 100 µM | – | – | – | – | – | – | – | – | – | – | – | – | –
CCc1cccc(C)c1NC(=S)NC(=O)c1ccccc1C(=O)NC(=S)Nc1c(C)cccc1CC | > 100 µM | > 100 µM | > 100 µM | > 100 µM | > 100 µM | > 100 µM | > 100 µM | – | – | – | – | – | – | – | – | – | – | – | – | –
[O-]c1c2c(nn1-c1ccc(Cl)cc1)c1ccccc1c[n+]2Cc1ccccc1 | > 100 µM | > 100 µM | > 100 µM | > 100 µM | > 100 µM | > 100 µM | > 100 µM | – | – | – | – | – | – | – | – | – | – | – | – | –
CCOCc1cc(=O)c2c(OC)cc3c(c2o1)CCC(C)(C)O3 | > 100 µM | > 100 µM | – | > 100 µM | > 100 µM | > 100 µM | > 100 µM | – | – | – | – | – | – | – | – | – | – | – | – | –
COc1cnc2c(c1)C(=O)c1c-2n(CCCN2CCNCC2)c(=O)c2cc([N+](=O)[O-])ccc12 | 1.77 µM | 2.24 µM | – | 1.9 µM | 24.1 µM | 1.57 µM | – | 0.38 µM | 0.655 µM | 1.47 µM | 3.33 µM | 1.17 µM | 2.56 µM | 0.0424 µM | 3.49 µM | 0.176 µM | – | – | – | –
C/C(=N\NC(=O)CC(=O)N(C(=O)c1ccc(Cl)cc1)c1ccc(C)cc1)c1ccccc1O | > 100 µM | > 100 µM | > 100 µM | – | > 100 µM | > 100 µM | > 100 µM | – | – | – | – | – | – | – | – | – | – | – | – | –
c1ccc(N/N=C2\NN=C(c3ccccc3)CS2)cc1 | 53.2 µM | – | 19.8 µM | > 100 µM | 41.4 µM | 21.5 µM | 51.4 µM | – | – | – | – | – | – | – | – | – | – | – | – | –
CCCCN(CCCC)CCCn1cnc2ncccc2c1=O | > 100 µM | > 100 µM | > 100 µM | > 100 µM | – | > 100 µM | > 100 µM | – | – | – | – | – | – | – | – | – | – | – | – | –
COC(=O)/C(=N\NC(N)=O)C(C(=O)C=C(C)C)C(=O)C(=O)Nc1ccc(Cl)c(Cl)c1 (centres undefined) | > 100 µM | > 100 µM | > 100 µM | > 100 µM | > 100 µM | > 100 µM | > 100 µM | – | – | – | – | – | – | – | – | – | – | – | – | –
[CH3][Sn]([CH3])([CH3])[O][N+](=O)[O-] | > 10 µM | – | > 10 µM | 3.33 µM | > 10 µM | > 10 µM | > 10 µM | > 10 µM | – | 3.67 µM | 7.35 µM | > 10 µM | > 10 µM | 1.48 µM | 6.81 µM | 3.91 µM | 2.87 µM | > 10 µM | 8.25 µM | 3.63 µM
COc1ccc(CCc2cc(OC)c(O)c(OC)c2)cc1 | > 100 µM | > 100 µM | > 100 µM | > 100 µM | 91.6 µM | > 100 µM | > 100 µM | – | – | – | – | – | – | – | – | – | – | – | – | –
CC(C)C1N2CCCCC2[C@@H]2c3[nH]c4ccccc4c3CCN12 (some centres undefined) | – | – | > 100 µM | – | > 100 µM | > 100 µM | > 100 µM | – | – | – | – | – | – | – | – | – | – | – | – | –
c1ccc2c(NCCCCCCNc3cccc4ccccc34)cccc2c1 | > 100 µM | > 100 µM | > 100 µM | – | > 100 µM | > 100 µM | > 100 µM | – | – | – | – | – | – | – | – | – | – | – | – | –
O=C1C2C3C=CC(C2C(=O)N1CN1CCSCC1)C1C2C(=O)N(CN4CCSCC4)C(=O)C2C31 (centres undefined) | > 100 µM | > 100 µM | > 91.6 µM | > 100 µM | > 100 µM | > 100 µM | > 57.3 µM | – | – | – | – | – | – | – | – | – | 69.1 µM | – | 40 µM | –
CCCCCCCC(=O)[O][Hg][CH2]C1COC([CH2][Hg][O]C(=O)CCCCCCC)CO1 (centres undefined) | 30.6 µM | 11.6 µM | 36.9 µM | – | – | 45.3 µM | 37.4 µM | 16.3 µM | 3.24 µM | 20.7 µM | 50.8 µM | 13.7 µM | 26.7 µM | – | – | 17.5 µM | 4.32 µM | 18.3 µM | 18.2 µM | 18.2 µM
COc1ccc(OC)c(/C=C/c2nc(SCc3ccccc3)n(-c3ccc(Cl)cc3)n2)c1 | > 100 µM | – | > 100 µM | > 100 µM | > 100 µM | > 100 µM | > 100 µM | 4.99 µM | – | 30.9 µM | > 100 µM | 33.3 µM | > 100 µM | 3.53 µM | > 100 µM | 6.15 µM | 4.78 µM | > 100 µM | 4.17 µM | 8.39 µM
COc1cc(/C=C2/C(=O)N(C(=O)OCc3ccccc3)C(Cc3cc(OC)c(OC)c(C)c3OC)C(=O)N2Cc2ccccc2)c(OC)c(C)c1OC (centres undefined) | > 100 µM | > 100 µM | > 100 µM | > 100 µM | > 100 µM | > 100 µM | > 100 µM | – | – | – | – | – | – | – | – | – | – | – | – | –
O=c1cc(-c2ccccc2)[nH]c2cc(Cl)ccc12 | 52.5 µM | > 100 µM | > 100 µM | – | 83.2 µM | 11.9 µM | 14.8 µM | – | – | – | – | – | – | – | – | – | – | – | – | –
Cn1c2ccccc2c2c(=O)n(CCCC(=O)OC(=NC3CCCCC3)NC3CCCCC3)c3c(-c4ccccc4)nnn3c21 | > 100 µM | > 100 µM | > 100 µM | – | > 100 µM | > 100 µM | > 100 µM | > 100 µM | > 100 µM | 71.7 µM | > 100 µM | > 100 µM | > 100 µM | – | > 100 µM | > 100 µM | 64.1 µM | > 100 µM | > 100 µM | 98.2 µM
CCOC(=O)c1cccnc1C(OC(C)=O)OC(C)=O | > 100 µM | > 100 µM | > 100 µM | > 100 µM | > 100 µM | > 100 µM | > 100 µM | – | – | – | – | – | – | – | – | – | – | – | – | –
CCCCCC[C@H](C)NC(=O)c1ccc(Nc2nc3ccccc3c3occc23)cc1 | 20.5 µM | – | > 100 µM | 55.5 µM | 6.17 µM | 35.5 µM | > 100 µM | 4.27 µM | – | 12.6 µM | 51.8 µM | 5.36 µM | > 100 µM | 6.65 µM | 2.64 µM | 16 µM | 5.86 µM | > 100 µM | 3.81 µM | 6.39 µM

— PubChem BioAssay (NCI)
